Results: patent publication US20130324555A1, “Method of use of pharmaceutical formulations for the treatment of apicomplexan diseases in animals” (priority 2012, published 2013)

Key:
T. gondii Me-49 oocysts = experiment: Mouse model of T. gondii oocyst infection, Me-49; type: in vivo, mice
Procedure: (§1) Compounds 14a and 14b were tested for efficacy against T. gondii in the oocyst stage following per oral challenge in mice. Mice were infected by oral gavage with ME49 or TgGoatUS4 oocysts. Mice were treated with either 100 mg/kg or 25 mg/kg) of test substance.
(§2) Thus, compounds 14a and 14b were tested for efficacy in a mouse model of T. gondii oocyst infection. The oocyst form of the parasite is excreted by cats and is often the form by which people and other animals become infected. This oocyst infection in mice is very virulent, and fatal. Mice were infected by oral gavage with ME49 or TgGoatUS4 oocysts. Mice were treated with either a high dose (100 mg/kg) or low dose (25 mg/kg) of 14a or 14b 1 mL suspension via oral gavage, or were not treated. […] Treatment with 14a and 14b increased survival by 1 day (Table 6, FIGS. 8 and 9).
(§3) HLA B07 transgenic mice were produced at Pharmexa-Epimmune (San Diego, Calif., USA) and bred at the University of Chicago. […]
(§4) Oocysts were obtained by feeding infected tissues of Swiss Webster mice to cats, sporulated in 2% sulfuric acid on a shaker for one week, and stored at 4° C. until used (Dubey 2010). Oocysts were counted in a disposable hemocytometer and diluted 10-fold from 10^−1 to 10^−7 to reach an end point of ≅1 oocyst. […]

[1] = test system: T. gondii TgGoatUS4 oocysts; experiment: Mouse model of T. gondii oocyst infection, TgGoatUS4; type: in vivo, mice
Procedure: as §1, §2, §3, §4

SMILES | increase of survival (T. gondii Me-49 oocysts; Me-49 oocysts, 100 or 25 mg/kg) [days] | survival of mice infected with T. gondii oocysts, in words (T. gondii Me-49 oocysts; mouse, in vivo) | increase of survival ([1]; TgGoatUS4 oocysts, 100 or 25 mg/kg) [days] | survival of mice infected with T. gondii oocysts, in words ([1]; mouse, in vivo)
CN(CC(=O)NN)C(=O)Oc1ccc(Cl)cc1C(=O)Nc1ccc([N+](=O)[O-])cc1Cl.Cl [Compound 14a, 4-chloro-2-((2-chloro-4-nitrophenyl)carbamoyl)phenyl (2-hydrazinyl-2-oxoethyl)(methyl)carbamate hydrochloride] | 1 | effective at prolonging slightly the survival |  | 
CN(CC(=O)NN)C(=O)Oc1ccc(Cl)cc1C(=O)Nc1ccc(C(F)(F)F)cc1C(F)(F)F.Cl [Compound 14b, 2-((2,4-bis(trifluoromethyl)phenyl)carbamoyl)-4-chlorophenyl (2-hydrazinyl-2-oxoethyl)(methyl)carbamate hydrochloride] |  |  | 1 | effective at prolonging slightly the survival
